Source: US20080261994A1, “CYCLOPROPANE COMPOUNDS AND PHARMACEUTICAL USE THEREOF” (Japan Tobacco Inc., priority 2003, published 2008)

Experiments:
Format in all cases: biochemical
[1] = biological target: T1, aggrecanase-1 (Homo sapiens, UniProt O75173); assay: Aggrecanase-1 inhibitory action (Particle Assay, GAG release from aggrecan-containing polyacrylamide particles); details: aggrecanase-1 inhibitory action; read-out: IC50 AG1 (Experimental Example 1)
T1 sequence (O75173 213-837): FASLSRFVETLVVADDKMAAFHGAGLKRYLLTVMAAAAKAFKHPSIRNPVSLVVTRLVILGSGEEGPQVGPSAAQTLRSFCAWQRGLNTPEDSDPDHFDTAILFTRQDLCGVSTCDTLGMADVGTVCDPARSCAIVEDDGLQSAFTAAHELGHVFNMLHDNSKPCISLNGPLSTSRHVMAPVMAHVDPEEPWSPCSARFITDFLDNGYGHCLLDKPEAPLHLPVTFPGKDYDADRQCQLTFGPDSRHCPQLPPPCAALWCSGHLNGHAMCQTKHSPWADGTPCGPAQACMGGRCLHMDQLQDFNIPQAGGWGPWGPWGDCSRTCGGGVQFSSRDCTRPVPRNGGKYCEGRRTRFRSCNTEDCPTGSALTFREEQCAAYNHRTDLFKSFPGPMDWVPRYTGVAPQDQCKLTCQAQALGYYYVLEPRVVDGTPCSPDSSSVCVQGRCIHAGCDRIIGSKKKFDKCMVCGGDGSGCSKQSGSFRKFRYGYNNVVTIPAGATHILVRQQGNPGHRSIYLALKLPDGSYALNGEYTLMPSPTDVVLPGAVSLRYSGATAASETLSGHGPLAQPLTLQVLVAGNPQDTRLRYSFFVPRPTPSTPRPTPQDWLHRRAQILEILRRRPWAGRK
Method in brief: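 Enzyme and compound incubated with aggrecan-containing polyacrylamide particles in Tris-HCl buffer at 37° C for 15 h. Released GAG in supernatant measured with 1,9-dimethylmethylene blue at 595 nm against chondroitin sulfate standard; % inhibition from enzyme-free and inhibitor-free wells, reported as TC50 (μM).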

[2] = biological target: T2, MMP-1 (Homo sapiens, UniProt P03956); assay: MMP-1 inhibitory action (Type I collagen Activity Measurement kit, FITC-labeled collagen type I); details: MMP-1 inhibitory action, FITC-labeled collagen type I, 37° C. for 3 hr; read-out: IC50 MMP1 (Experimental Example 2)
T2 sequence (P03956 100-469): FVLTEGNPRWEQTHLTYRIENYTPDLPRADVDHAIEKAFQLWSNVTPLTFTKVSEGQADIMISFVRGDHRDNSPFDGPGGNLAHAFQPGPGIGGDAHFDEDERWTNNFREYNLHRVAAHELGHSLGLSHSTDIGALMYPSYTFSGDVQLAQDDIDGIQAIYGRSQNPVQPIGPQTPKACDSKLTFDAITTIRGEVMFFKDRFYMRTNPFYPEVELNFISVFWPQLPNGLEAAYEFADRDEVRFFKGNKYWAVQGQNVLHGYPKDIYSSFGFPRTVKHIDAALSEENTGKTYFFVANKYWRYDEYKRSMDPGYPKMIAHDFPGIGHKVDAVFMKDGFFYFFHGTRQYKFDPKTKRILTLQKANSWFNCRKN

[3] = biological target: T3, Recombinant Human MMP-13 (Homo sapiens, UniProt P45452); assay: MMP-13 inhibitory activity (MMP-13 specific fluorescent substrate with quencher); details: Recombinant Human MMP-13, fluorescent substrate, 25° C. for 1 h; read-out: IC50 MMP13 (Experimental Example 3)
T3 construct: purchased R&D systems 511-MM
Method in brief: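 Recombinant human MMP-13 with test compound, reaction started with quenched fluorogenic peptide 7-MCA-Pro-CHA-Gly-NVal-His-Ala-DPA in Tris-HCl buffer, 1 h at 25 °C, stopped with acetic acid. Fluorescence at Ex 325/Em 405 nm; % inhibition versus enzyme-free and inhibitor-free wells, reported as IC50 (μM).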

Row | SMILES | IC50 [1] | IC50 [2] | IC50 [3]
1 | O=C(O)[C@]1(NS(=O)(=O)c2ccc(C3=NOC(O)(C(F)(F)F)C3)s2)C[C@@H]1c1ccccc1 (stereo partly drawn) [Example 2-35] | < 1000 nM | ≥ 10 µM | < 1000 nM
2 | Cc1ccc(-c2ccc(S(=O)(=O)N[C@@]3(C(=O)O)C[C@@H]3c3ccccc3)s2)s1 [Example 2-39] | < 1000 nM | ≥ 1 µM | < 100 nM
3 | Cc1ccc(-c2ccccc2C2CC2(NS(=O)(=O)c2ccc(-c3ccc(Cl)cc3)s2)C(=O)O)cc1 (stereo not drawn) [Example 2-40] | < 1000 nM | ≥ 10 µM | < 1000 nM
4 | O=C(O)C1(NS(=O)(=O)c2ccc(-c3ccc(Cl)cc3)s2)CC1C1CCCCC1 (stereo not drawn) [Example 2-41] | < 1000 nM | ≥ 10 µM | < 1000 nM
5 | O=C(O)[C@]1(NS(=O)(=O)c2ccc(-c3cc(C(F)(F)F)on3)s2)C[C@@H]1c1ccccc1 [Example 2-43] | < 100 nM | < 1 µM | < 100 nM
6 | O=C(O)[C@]1(NS(=O)(=O)c2ccc(-c3noc(C(F)(F)F)n3)s2)C[C@@H]1c1ccccc1 [Example 2-44] | ≥ 1000 nM | ≥ 10 µM | ≥ 1000 nM
7 | O=C(O)[C@]1(NS(=O)(=O)c2ccc(-c3noc(C(F)(F)C(F)(F)F)n3)s2)C[C@@H]1c1ccccc1 [Example 2-45] | ≥ 1000 nM | ≥ 10 µM | ≥ 1000 nM
8 | C=CC1CC1(NS(=O)(=O)c1ccc(-c2ccc(Cl)cc2)s1)C(=O)O (stereo not drawn) [Example 2-46] | ≥ 1000 nM | ≥ 10 µM | ≥ 1000 nM
9 | Cc1nc(-c2ccc(S(=O)(=O)N[C@@]3(C(=O)O)C[C@@H]3c3ccccc3)s2)cs1 [Example 2-50] | ≥ 1000 nM | ≥ 10 µM | ≥ 1000 nM
10 | Cc1nc(-c2ccc(S(=O)(=O)N[C@@]3(C(=O)O)C[C@@H]3c3ccccc3)s2)no1 [Example 2-51] | ≥ 1000 nM | ≥ 10 µM | ≥ 1000 nM
11 | CC1(C)COC(c2ccc(S(=O)(=O)N[C@@]3(C(=O)O)C[C@@H]3c3ccccc3)s2)=N1 [Example 2-54] | ≥ 1000 nM | ≥ 10 µM | ≥ 10000 nM
12 | Cc1ncc(-c2ccc(S(=O)(=O)N[C@@]3(C(=O)O)C[C@@H]3c3ccccc3)s2)s1 [Example 2-55] | ≥ 1000 nM | ≥ 10 µM | ≥ 10000 nM
13 | O=C(O)C1(NS(=O)(=O)c2ccc(-c3ccc(Cl)cn3)s2)CC1c1cccc(Cn2cccn2)c1 (stereo not drawn) [Example 2-56] | < 100 nM | ≥ 10 µM | < 100 nM
14 | O=C(O)C1(NS(=O)(=O)c2ccc(-c3ccc(Cl)cc3)s2)CC1C1CCC1 (stereo not drawn) [Example 2-58] | < 1000 nM | ≥ 10 µM | < 1000 nM
15 | CC(C)C1CC1(NS(=O)(=O)c1ccc(-c2ccc(Cl)cc2)s1)C(=O)O (stereo not drawn) [Example 2-59] | < 1000 nM | ≥ 10 µM | < 1000 nM
16 | O=C(O)[C@]1(NS(=O)(=O)c2ccc(-c3nc(C(F)(F)F)cs3)s2)C[C@@H]1c1ccccc1 [Example 2-60] | ≥ 10000 nM | ≥ 10 µM | ≥ 1000 nM
17 | O=C(O)C1(NS(=O)(=O)c2ccc(-c3ccc(Cl)cc3)s2)CC1C1CCCC1 (stereo not drawn) [Example 2-61] | < 1000 nM | ≥ 10 µM | < 1000 nM
18 | O=C(O)C1(NS(=O)(=O)c2ccc(-c3ccc(Cl)cn3)s2)CC1c1ccccc1CO (stereo not drawn) [Example 2-63] | < 100 nM | ≥ 1 µM | < 100 nM
19 | COc1ccc(N2CCN(S(=O)(=O)NC3(C(=O)O)CC3c3ccccc3)CC2)cc1 (stereo not drawn) [Example 2-64] | ≥ 10000 nM | ≥ 10 µM | ≥ 1000 nM
20 | CC(=O)c1ccc(S(=O)(=O)NC2(C(=O)O)CC2c2ccccc2)s1 (stereo not drawn) [Example 2-66] | ≥ 1000 nM | ≥ 10 µM | ≥ 1000 nM
21 | O=C(O)C1(NS(=O)(=O)N2CCN(c3ccc(F)cc3)CC2)CC1c1ccccc1 (stereo not drawn) [Example 2-67] | ≥ 10000 nM | ≥ 10 µM | < 1000 nM
22 | O=C(O)C1(NS(=O)(=O)N2CCN(c3ccc(C(F)(F)F)cn3)CC2)CC1c1ccccc1 (stereo not drawn) [Example 2-68] | ≥ 1000 nM | ≥ 10 µM | < 100 nM

Now from value to molecule:

Row | IC50 [1] | IC50 [2] | IC50 [3] | SMILES
23 | < 1000 nM | ≥ 10 µM | < 1000 nM | O=C(O)[C@]1(NS(=O)(=O)c2ccc(-c3ccc(Cl)nc3)s2)C[C@@H]1c1ccccc1 [Example 2-27]
24 | < 100 nM | ≥ 10 µM | < 100 nM | O=C(O)C1(NS(=O)(=O)c2ccc(-c3ccc(Cl)cc3)s2)CC1c1cccc(CNc2cccnc2)c1 (stereo not drawn) [Example 2-32]
25 | < 1000 nM | ≥ 10 µM | < 1000 nM | O=C(O)C1(NS(=O)(=O)c2ccc(-c3ccc(Cl)cc3)s2)CC1c1cccc(OCc2ccccc2)c1 (stereo not drawn) [Example 2-36]
26 | < 100 nM | ≥ 10 µM | < 100 nM | CN(Cc1cccnc1)c1cccc(C2CC2(NS(=O)(=O)c2ccc(-c3ccc(Cl)cc3)s2)C(=O)O)c1 (stereo not drawn) [Example 2-37]
27 | < 100 nM | ≥ 10 µM | < 100 nM | CC(C)(O)COc1cccc(C2CC2(NS(=O)(=O)c2ccc(-c3ccc(Cl)cc3)s2)C(=O)O)c1 (stereo not drawn) [Example 2-42]
28 | ≥ 1000 nM | ≥ 10 µM | < 1000 nM | O=C(O)C1(NS(=O)(=O)c2ccc(-c3ccc(Cl)cc3)s2)CC1Cn1nnc2ccccc2c1=O (stereo not drawn) [Example 2-47]
29 | < 1000 nM | ≥ 10 µM | ≥ 1000 nM | CCC1CC1(NS(=O)(=O)c1ccc(-c2ccc(Cl)cc2)s1)C(=O)O (stereo not drawn) [Example 2-48]
30 | ≥ 1000 nM | ≥ 10 µM | ≥ 10000 nM | CN(C)CCOc1ccccc1C1CC1(NS(=O)(=O)c1ccc(-c2ccc(Cl)cc2)s1)C(=O)O (stereo not drawn) [Example 2-49]
31 | < 1000 nM | ≥ 10 µM | < 1000 nM | O=C(O)C1(NS(=O)(=O)c2ccc(-c3ccc(Cl)cc3)s2)CC1COc1ccccc1 (stereo not drawn) [Example 2-52]
32 | ≥ 1000 nM | ≥ 10 µM | ≥ 1000 nM | CC(C)(C)NCCOc1ccccc1C1CC1(NS(=O)(=O)c1ccc(-c2ccc(Cl)cc2)s1)C(=O)O (stereo not drawn) [Example 2-53]
33 | < 1000 nM | ≥ 10 µM | < 100 nM | COCc1cccc(C2CC2(NS(=O)(=O)c2ccc(-c3ccc(Cl)cn3)s2)C(=O)O)c1 (stereo not drawn) [Example 2-57]
34 | < 1000 nM | ≥ 10 µM | < 1000 nM | CC(C)(C)C1CC1(NS(=O)(=O)c1ccc(-c2ccc(Cl)cc2)s1)C(=O)O (stereo not drawn) [Example 2-62]
35 | < 1000 nM | ≥ 10 µM | < 1000 nM | O=C(O)C1(NS(=O)(=O)c2ccc(-c3ccc(O)cc3)s2)CC1c1ccccc1 (stereo not drawn) [Example 2-65]
36 | < 100 nM | ≥ 1 µM | < 100 nM | COCCN(C)C(=O)c1cccc(C2CC2(NS(=O)(=O)c2ccc(-c3ccc(Cl)cc3)s2)C(=O)O)c1 (stereo not drawn) [Example 2-69]
37 | < 100 nM | ≥ 10 µM | < 1000 nM | COCCN(C)C(=O)c1ccccc1C1CC1(NS(=O)(=O)c1ccc(-c2ccc(Cl)cc2)s1)C(=O)O (stereo not drawn) [Example 2-71]
38 | < 100 nM | ≥ 10 µM | < 1000 nM | O=C(NCCO)c1ccccc1C1CC1(NS(=O)(=O)c1ccc(-c2ccc(Cl)cc2)s1)C(=O)O (stereo not drawn) [Example 2-72]
39 | < 100 nM | ≥ 10 µM | < 1000 nM | O=C(c1cccc(C2CC2(NS(=O)(=O)c2ccc(-c3ccc(Cl)cc3)s2)C(=O)O)c1)N1CCOCC1 (stereo not drawn) [Example 2-73]
40 | < 1000 nM | ≥ 10 µM | < 100 nM | CC(C)(CO)NC(=O)c1cccc(C2CC2(NS(=O)(=O)c2ccc(-c3ccc(Cl)cc3)s2)C(=O)O)c1 (stereo not drawn) [Example 2-74]
41 | < 1000 nM | ≥ 10 µM | < 1000 nM | O=C(NCCO)c1cccc(C2CC2(NS(=O)(=O)c2ccc(-c3ccc(Cl)cc3)s2)C(=O)O)c1 (stereo not drawn) [Example 2-75]
42 | < 100 nM | ≥ 10 µM | < 1000 nM | O=C(c1ccccc1C1CC1(NS(=O)(=O)c1ccc(-c2ccc(Cl)cc2)s1)C(=O)O)N1CCOCC1 (stereo not drawn) [Example 2-76]
